Assay [1] has as its target T1, CepR (Burkholderia cenocepacia, UniProt B4EMD0).
T1 sequence (B4EMD0 1-239): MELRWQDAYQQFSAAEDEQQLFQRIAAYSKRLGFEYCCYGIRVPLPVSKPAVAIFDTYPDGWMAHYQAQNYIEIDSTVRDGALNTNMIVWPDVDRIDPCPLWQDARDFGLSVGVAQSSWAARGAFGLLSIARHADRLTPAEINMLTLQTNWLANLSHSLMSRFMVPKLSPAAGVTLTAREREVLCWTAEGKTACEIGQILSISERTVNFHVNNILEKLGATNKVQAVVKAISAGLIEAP
Nature of the assay: CepR agonism in E. coli β-galactosidase reporter (Ec-reporter) JLD271 [pJN105-cepR + pSC11-cepI]. Conditions: for EC50 / EC50 (nM): agonism dose-response; for Emax: read-out: Maximal Activation (%); for activation at 100 µM / Act%: Table S2, Ec-reporter, screening conc. 100 μM. It is filed as cell-based, B. cenocepacia. Put shortly: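 E. coli JLD271 (ΔsdiA) carrying arabinose-inducible CepR (27 mM L-arabinose) and cepI-lacZ fusion, grown 4 h with compound; β-galactosidase measured by CPRG cleavage at 37 °C (~30 min), normalized to OD600. Agonism compared with C8-AHL at 100 μM; screen at 100 μM or solubility limit, then dose-response; ≥3 trials.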

For assay [2], the target named is T1, CepR. Nature of the assay: CepR antagonism in E. coli β-galactosidase reporter (Ec-reporter), competition against C8-AHL. Conditions: against 10 nM C8-AHL; for inhibition at 100 µM: read-out: Inh% (100-Act%); for IC50 / Maximal Inhibition (%): Ec-reporter. It is filed as cell-based, B. cenocepacia. Put shortly: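 CepR antagonism was measured in E. coli JLD271 (∆sdiA) carrying pJN105-cepR, which expresses B. cenocepacia CepR from an arabinose-inducible pBAD promoter, and pSC11-cepI, which fuses lacZ to the cepI promoter. Induced cells were grown 4 h with compound and 10 nM C8-AHL. β-Galactosidase activity was then read by CPRG cleavage at 37 °C after Z Buffer permeabilization.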

Where [3] appears, read: Ec-reporter, activity for 100 μM C8-AHL set to 100%, error ±10%.
Setting [4] is: Table S3, Ec-reporter, screening conc. 100 μM.

Results on nine compounds are retold here after article PMC6748986, “Potent modulation of the CepR quorum sensing receptor and virulence in a Burkholderia cepacia complex member using non-native lactone ligands” (Scientific Reports, 2019).

Each structure is given as a SMILES string. “And” between values parts separate entries of the source, which are not always exact repeats. Equal entries are not always repeated.

In the case of `O=C(CCc1ccc([N+](=O)[O-])cc1)N[C@H]1CCOC1=O` [Compound E37], at CepR [1] (Ec-reporter), the EC50 (usually the concentration that produces a half-maximal response) is 0.19 nM and the “EC50 (nM)” value was “sub-nanomolar”. In addition, the Emax at CepR [1] (setting [3]) was 95%. For the same compound, the activation at 100 µM at CepR [1] was found to be 95%. For the same compound, the inhibition at 100 µM at CepR [2] (setting [4]) was -30%.
For the compound `CCCCCCCS(=O)(=O)N[C@H]1CCOC1=O` [Compound A12], the “CepR agonism in words” value at CepR [1] (Ec-reporter) is “failed to activate CepR”. At CepR [1] (setting [3]), the Emax was 46%. The activation at 100 µM at CepR [1] was determined as 46%. For the same compound, at CepR [2], the IC50 (in general, the midpoint of a concentration-inhibition curve) was found to be 380 nM and the “Maximal Inhibition (%)” value worked out at 68%.
Turning to `O=C(CCc1ccc(I)cc1)N[C@H]1CCOC1=O` [Compound E32], the EC50 on CepR [1] (Ec-reporter) is 1.1 nM. Also, the Emax on CepR [1] (setting [3]) is 97%. The activation at 100 µM at CepR [1] is 97%. For the same compound, the inhibition at 100 µM on CepR [2] (setting [4]) was -20%.
Regarding `O=C(Cc1cccc(Br)c1)N[C@H]1CCOC1=O` [Compound C8], the Act% at CepR [1] is given as 12%. For the same compound, on CepR [2], the IC50 worked out at 2700 nM and the “Maximal Inhibition (%)” value is 79%.
`O=C(Cc1cccc(C(F)(F)F)c1)N[C@H]1CCOC1=O` [Compound E3]: the activation at 100 µM on CepR [1] worked out at 6.6%. For the same compound, at CepR [2], the half-inhibitory concentration (IC50) was found to be 3300 nM and the “Maximal Inhibition (%)” value is 77%.
Regarding `CCCCCCCC(=O)N[C@H]1CCOC1=O` [Compound C8-AHL, N-octanoyl L-homoserine lactone, reference compound], the “EC50 fold higher in the Ec-reporter than in the Bm-reporter” value on CepR [1] (Ec- vs Bm-reporter) is reported as ~ 10 fold. The EC50 at CepR [1] (Ec-reporter) is 5 nM and 5.7 nM. Moreover, the Emax on CepR [1] (setting [3]) was 100%. Moreover, the activation at 100 µM on CepR [1] was determined as 100%. Further, the inhibition at 100 µM on CepR [2] (setting [4]) is -30%.
Turning to `CCCCCC(O)CC(=O)N[C@H]1CCOC1=O` (stereo partly shown) [3’OH-C8-AHL, reference compound], the EC50 at CepR [1] (Ec-reporter) was found to be 210 nM. The “Maximal Activation (%)” value at CepR [1] (setting [3]) is given as 84%. For the same compound, on CepR [1], the Act% turned out to be 84%. Besides, on CepR [2] (setting [4]), the “Inh% (100-Act%)” value is on record as -20%.
As to `O=C(CC1CCCC1)N[C@H]1CCOC1=O` [Compound B12], the activation at 100 µM at CepR [1] was determined as 39%. For the same compound, at CepR [2], the IC50 stood at 3700 nM and the “Maximal Inhibition (%)” value stood at 69%.
For `O=C(CCc1ccc(C(F)(F)F)cc1)N[C@H]1CCOC1=O` [Compound E35], on CepR [1] (Ec-reporter), the EC50 stood at 0.18 nM and the “EC50 (nM)” value is on record as “sub-nanomolar”. Moreover, the Emax on CepR [1] (setting [3]) stood at 100%. The activation at 100 µM on CepR [1] stood at 100%. Moreover, the inhibition at 100 µM on CepR [2] (setting [4]) was -50%.
